What was measured:
L-O2 cells = assay: MTT assay for cell growth inhibition, L-O2; format: cell-based; details: Homo sapiens, L02, 48 h, read-out: IC50 L-O2
[1] = tested on: Hypoxia Inducible Factor-1 (HIF-1) pathway; assay: cells; details: Homo sapiens, HeLa, 12 h, read-out: HRE IC50
HeLa cells = assay: MTT cell growth inhibition; format: cell-based; details: Homo sapiens
MCF-7 cells = assay: MTT assay for tumor cell growth inhibition, MCF-7; format: cell-based; details: Homo sapiens, MCF7, 48 h, read-out: IC50 MCF-7
HepG2 cells = assay: MTT assay for tumor cell growth inhibition, HepG2; format: cell-based; details: Homo sapiens, HepG2, 48 h, read-out: IC50 HepG2
[2] = tested on: Hypoxia Inducible Factor-1 (HIF-1) pathway; details: dual luciferase reporter system
H322 cell = details: previous work in our laboratory, ref unpublished; cited from earlier work
[3] = tested on: hypoxia inducible factor-1 (HIF-1) transcription; details: dual luciferase reporter assay, previous work in our laboratory, ref unpublished; cited from earlier work

Row | SMILES | IC50 (L-O2 cells) [µM] | IC50 [1] [µM] | GI50 (HeLa cells) [µM] | IC50 (MCF-7 cells) [µM] | IC50 (HepG2 cells) [µM] | HIF inhibitory activity (in words) [2] | cytotoxicity against H322 cell (H322 cell) | inhibitory activity on HIF-1 transcription [3]
1 | COc1ccc(C(=O)c2cc(C#Cc3ccc(O)cc3)ccc2-c2ccc(O)cc2)cc1 [Compound 2d, (4′-Hydroxy-4-((4-hydroxyphenyl)ethynyl)-[1,1′-biphenyl]-2-yl)(4-methoxyphenyl)methanone] | 7.83 ± 1.2 | 4.47 ± 0.6 | 3.24 ± 0.1 | 6.49 ± 0.1 | 24.99 ± 0.1 | – | – | –
2 | COc1ccc(C(=C2C=CC(=O)C=C2)c2cc(C#Cc3ccc(O)cc3)ccc2-c2ccc(O)cc2)cc1 [Compound 2j, 4-((4′-Hydroxy-4-((4-hydroxyphenyl)ethynyl)-[1,1′-biphenyl]-2-yl)(4-methoxyphenyl)methylene)cyclohexa-2,5-dien-1-one] | 11.1 ± 0.7 | – | 4.47 ± 0.5 | 12.1 ± 0.1 | 11.6 ± 0.6 | little HIF inhibitory activity | – | –
3 | COc1ccc(-c2ccc(C#Cc3ccc(O)cc3)cc2C(O)(c2ccc(OC)cc2)c2ccc(OC)cc2)cc1 [Compound 2g, 4-((2-(Hydroxybis(4-methoxyphenyl)methyl)-4′-methoxy-[1,1′-biphenyl]-4-yl)ethynyl)phenol] | 16.4 ± 1.3 | 8.1 ± 1.4 | 15.48 ± 0.1 | 13 ± 0.7 | 15.1 ± 0.6 | – | – | –
4 | CCCCC(O)(c1ccc(OC)cc1)c1cc(C#Cc2ccc(OC)cc2)ccc1-c1ccc(OC)cc1 (stereo not shown) [Compound 2f, 1-(4′-methoxy-4-((4-methoxyphenyl)ethynyl)-[1,1′-biphenyl]-2-yl)-1-(4-methoxyphenyl)pentan-1-ol] | > 100 | 1.89 ± 0.4 | > 100 | > 100 | > 100 | – | – | –
5 | COc1ccc(C#Cc2ccc(-c3ccc(OC)cc3)c(C(O)(c3ccc(OC)cc3)c3ccc(OC)cc3)c2)cc1 [Compound 2e, (4′-Methoxy-4-((4-methoxyphenyl)ethynyl)-[1,1′-biphenyl]-2-yl)bis(4-methoxyphenyl)methanol] | > 100 | 20.8 ± 0.8 | > 100 | > 100 | > 100 | – | – | –
6 | Cc1ccc(-c2ccc(O)cc2)c(C(=C2C=CC(=O)C=C2)c2ccc(O)cc2)c1C#Cc1ccc(O)cc1 [selaginellin B] | – | – | – | – | – | – | moderately cytotoxic | –
7 | COC(=O)c1c(C#Cc2ccc(OC)cc2)cccc1-c1ccc(OC)cc1 [Compound 1a, Methyl 4′-methoxy-3-((4-methoxyphenyl)ethynyl)-[1,1′-biphenyl]-2-carboxylate] | > 100 | 5.41 ± 1.1 | > 100 | > 100 | > 100 | – | – | –
8 | COc1ccc(C(=O)c2c(C#Cc3ccc(O)cc3)cccc2-c2ccc(O)cc2)cc1 [Compound 1d, (4′-Hydroxy-3-((4-hydroxyphenyl)ethynyl)-[1,1′-biphenyl]-2-yl)(4-methoxyphenyl)methanone] | 64 ± 1 | 9.52 ± 0.4 | 44.81 ± 0.2 | 51.2 ± 0.6 | 54.8 ± 1.9 | – | – | –
9 | COC(=O)c1cc(C#Cc2ccc(OC)cc2)ccc1-c1ccc(OC)cc1 [Compound 2a, Methyl 4′-methoxy-4-((4-methoxyphenyl)ethynyl)-[1,1′-biphenyl]-2-carboxylate] | > 100 | 18.3 ± 1.6 | > 100 | > 100 | > 100 | – | – | –
10 | COc1ccc(C(O)(c2ccc(OC)cc2)c2cc(C#Cc3ccc(O)cc3)ccc2-c2ccc(O)cc2)cc1 [Compound 2h, 2′-(hydroxybis(4-methoxyphenyl)methyl)-4′-((4-hydroxyphenyl)ethynyl)-[1,1′-biphenyl]-4-ol] | 10.6 ± 1.1 | 2.52 ± 0.4 | 10.8 ± 0.3 | 11.9 ± 0.5 | 11.8 ± 0.8 | – | – | –
11 | COc1ccc(C#Cc2cccc(-c3ccc(OC)cc3)c2C(=O)c2ccc(OC)cc2)cc1 [Compound 1c, (4′-Methoxy-3-((4-methoxyphenyl)ethynyl)-[1,1′-biphenyl]-2-yl)(4-methoxyphenyl)methanone] | – | 2.36 ± 0.4 | 3.75 ± 0.2 | 7.18 ± 1.2 | – | – | – | –
12 | COc1ccc(C#Cc2ccc(-c3ccc(OC)cc3)c(C(=O)c3ccc(OC)cc3)c2)cc1 [Compound 2c, (4′-Methoxy-4-((4-methoxyphenyl)ethynyl)-[1,1′-biphenyl]-2-yl)(4-methoxyphenyl)methanone] | > 100 | 39.9 ± 3.1 | > 100 | > 100 | > 100 | – | – | –
13 | COc1ccc(C2(c3ccc(OC)cc3)c3cc(O)ccc3-c3ccc(C#Cc4ccc(O)cc4)cc32)cc1 [Compound 2i, 7-((4-Hydroxyphenyl)ethynyl)-9,9-bis(4-methoxy-phenyl)-9H-fluoren-2-ol] | 10.9 ± 1 | 5.55 ± 1.3 | 7.58 ± 0.1 | 9.23 | 8.96 ± 0.4 | – | – | –
14 | COc1ccc(C#Cc2ccc(-c3ccc(OC)cc3)c(C(=O)O)c2)cc1 [Compound 2b, 4′-Methoxy-4-((4-methoxyphenyl)ethynyl)-[1,1′-biphenyl]-2-carboxylic acid] | > 100 | 15.6 ± 1.6 | > 100 | > 100 | > 100 | – | – | –
15 | O=c1oc(-c2ccc(O)cc2)cc2cccc(-c3ccc(O)cc3)c12 [Compound 1e, 3,8-Bis(4-hydroxyphenyl)-1H-isochromen-1-one] | 92.5 ± 2 | 13.7 ± 0.4 | 86.31 ± 0.5 | 95.57 ± 0.4 | 55.5 ± 1.9 | – | – | –
16 | Cc1ccc(-c2ccc(O)cc2)c(C(=C2C=CC(=O)C=C2)c2ccccc2)c1C#Cc1ccc(O)cc1 [selaginellin A] | – | – | – | – | – | – | moderately cytotoxic | displayed inhibitory activity
17 | COc1ccc(C#Cc2cccc(-c3ccc(OC)cc3)c2C(=O)O)cc1 [Compound 1b, 4′-Methoxy-3-((4-methoxyphenyl)ethynyl)-[1,1′-biphenyl]-2-carboxylic acid] | > 100 | 20.7 ± 2.5 | > 100 | > 100 | > 100 | – | – | –
